Measured values: patent publication US20140242093A1, “METHODS AND COMPOSITIONS FOR MODULATING THE INNATE IMMUNE RESPONSE AND/OR MYOGENESIS IN A MAMMALIAN SUBJECT” (FRED HUTCHINSON CANCER RESEARCH CENTER, priority 2011, published 2014)

Tested on: control human primary myoblasts
Assay: Expression microarray of primary myoblasts transduced with lentivirus carrying DUX4-fl, DUX4-s or GFP
Procedure: Primary human myoblasts were collected and cultured as previously described (Snider et al., 2010). Primary myoblasts were maintained at or below 70% confluency for proliferation. For differentiation, cells were allowed to reach 95-100% confluency in growth medium. Once confluency was reached, the cells were changed to differentiation medium (F10 media supplemented with 1% horse serum, 10 μg/mL insulin, and 10 μg/mL transferrin, penicillin/streptomycin) and maintained for 4 days. Human RD cells were grown in DMEM in 10% bovine calf serum (Hyclone) and penicillin/streptomycin. The primary myoblasts were transduced with lentivirus carrying DUX-fl, DUX4- or GFP (MOI=15).
Expression microarrays were performed on the transduced cells at 24 hours after transduction as follows. […] Samples were analyzed by Illumina Human Whole Genome microarrays. Probe intensities were corrected, normalized, and summarized by the Lumi package of Bioconductor (Du et al., 2008). Differentially expressed genes were identified by the LIMMA package of Bioconductor (Wettenhall and Smyth, 2004). Gene set enrichment analysis (GSEA) was performed using the Bioconductor GOstats package (Falcon and Gentleman, 2007).

DUX4-fl: full-length DUX4 protein (SEQ ID NO:110), expressed from lentiviral or pCS2 vectors or in vitro translated
ZBTB4 expression fc (cultured human skeletal muscle): −1.417 | ZC3H12A expression fc (cultured human skeletal muscle): −1.546 | ZFHX3 expression fc (cultured human skeletal muscle): −1.762 | ZFP36L2 expression fc (cultured human skeletal muscle): −1.545 | ZFP90 expression fc (cultured human skeletal muscle): −1.609 | ZNF337 expression fc (cultured human skeletal muscle): −1.693 | ZNF395 expression fc (cultured human skeletal muscle): −1.392 | Full.fc (expression fold change for DUX4-fl targets) (gene AVPI1): 2 | Full.fc (expression fold change for DUX4-fl targets) (gene BZW2): 2.7 | Full.fc (expression fold change for DUX4-fl targets) (gene C1orf63): 2.2 | Full.fc (expression fold change for DUX4-fl targets) (gene C6orf191): 2.1 | Full.fc (expression fold change for DUX4-fl targets) (gene C14orf102): 2.5 | Full.fc (expression fold change for DUX4-fl targets) (gene C14orf138): 1.7 | Full.fc (expression fold change for DUX4-fl targets) (gene C21orf91): 1.8 | Full.fc (expression fold change for DUX4-fl targets) (gene CBARA1): 2.1 | Full.fc (expression fold change for DUX4-fl targets) (gene CCNA1): 7.5 | Full.fc (expression fold change for DUX4-fl targets) (gene CCNJ): 2.7 | Full.fc (expression fold change for DUX4-fl targets) (gene CLDN14): 3.1 | Full.fc (expression fold change for DUX4-fl targets) (gene CLK1): 1.8 | Full.fc (expression fold change for DUX4-fl targets) (gene CSE1L): 2.9 | Full.fc (expression fold change for DUX4-fl targets) (gene CTNNAL1): 1.6 | Full.fc (expression fold change for DUX4-fl targets) (gene CTR9): 2.4 | Full.fc (expression fold change for DUX4-fl targets) (gene DBR1): 3.4 | Full.fc (expression fold change for DUX4-fl targets) (gene DDX47): 1.7 | Full.fc (expression fold change for DUX4-fl targets) (gene DEFB103A): 6.4 | Full.fc (expression fold change for DUX4-fl targets) (gene DENND2C): 2.6 | Full.fc (expression fold change for DUX4-fl targets) (gene EGLN1): 1.6 | Full.fc (expression fold change for DUX4-fl targets) (gene EXOSC10): 1.9 | Full.fc (expression fold change for DUX4-fl targets) (gene FAM90A1): 3.6 | Full.fc (expression fold change for DUX4-fl targets) (gene FBXO33): 3.2 | Full.fc (expression fold change for DUX4-fl targets) (gene FRG2B): 2 | Full.fc (expression fold change for DUX4-fl targets) (gene GPBAR1): 1.9 | Full.fc (expression fold change for DUX4-fl targets) (gene GTF2F1): 3.2 | Full.fc (expression fold change for DUX4-fl targets) (gene HOXB2): 2.2 | Full.fc (expression fold change for DUX4-fl targets) (gene JUP): 3.2 | Full.fc (expression fold change for DUX4-fl targets) (gene KDM5B): 1.8 | Full.fc (expression fold change for DUX4-fl targets) (gene KIF21A): 1.8 | Full.fc (expression fold change for DUX4-fl targets) (gene MAPKAP1): 1.6 | Full.fc (expression fold change for DUX4-fl targets) (gene MAST4): 1.7 | Full.fc (expression fold change for DUX4-fl targets) (gene MED13): 1.8 | Full.fc (expression fold change for DUX4-fl targets) (gene NANS): 1.9 | Full.fc (expression fold change for DUX4-fl targets) (gene NFYA): 2.3 | Full.fc (expression fold change for DUX4-fl targets) (gene PABPN1): 2.6 | Full.fc (expression fold change for DUX4-fl targets) (gene PANX2): 3.8 | Full.fc (expression fold change for DUX4-fl targets) (gene PELI1): 2.9 | Full.fc (expression fold change for DUX4-fl targets) (gene PNP): 7 | Full.fc (expression fold change for DUX4-fl targets) (gene PPP2R2B): 4.1 | Full.fc (expression fold change for DUX4-fl targets) (gene PRAMEF12): 7.8 | Full.fc (expression fold change for DUX4-fl targets) (gene PRPF18): 1.7 | Full.fc (expression fold change for DUX4-fl targets) (gene PRR4): 3.6 | Full.fc (expression fold change for DUX4-fl targets) (gene PTP4A1): 1.7 | Full.fc (expression fold change for DUX4-fl targets) (gene PVRL3): 2.2 | Full.fc (expression fold change for DUX4-fl targets) (gene RBBP6): 2 | Full.fc (expression fold change for DUX4-fl targets) (gene RFPL1): 8.4 | Full.fc (expression fold change for DUX4-fl targets) (gene RFPL2): 7.3 | Full.fc (expression fold change for DUX4-fl targets) (gene RFPL4B): 8.3 | Full.fc (expression fold change for DUX4-fl targets) (gene RTN4): 1.6 | Full.fc (expression fold change for DUX4-fl targets) (gene SAMD8): 1.6 | Full.fc (expression fold change for DUX4-fl targets) (gene SEC61A2): 1.8 | Full.fc (expression fold change for DUX4-fl targets) (gene SFRS2B): 4.2 | Full.fc (expression fold change for DUX4-fl targets) (gene SH3GL2): 1.6 | Full.fc (expression fold change for DUX4-fl targets) (gene SIAH1): 3.7 | Full.fc (expression fold change for DUX4-fl targets) (gene SNAI1): 1.9 | Full.fc (expression fold change for DUX4-fl targets) (gene SON): 2.1 | Full.fc (expression fold change for DUX4-fl targets) (gene SPRYD5): 1.8 | Full.fc (expression fold change for DUX4-fl targets) (gene SPTY2D1): 3.3 | Full.fc (expression fold change for DUX4-fl targets) (gene SRRT): 2.6 | Full.fc (expression fold change for DUX4-fl targets) (gene SYNJ1): 2.4 | Full.fc (expression fold change for DUX4-fl targets) (gene TAF4B): 1.9 | Full.fc (expression fold change for DUX4-fl targets) (gene TFIP11): 3.2 | Full.fc (expression fold change for DUX4-fl targets) (gene TRIM43): 8.1 | Full.fc (expression fold change for DUX4-fl targets) (gene TRIM48): 7.9 | Full.fc (expression fold change for DUX4-fl targets) (gene TRIM49L1): 6.9 | Full.fc (expression fold change for DUX4-fl targets) (gene TRIM49L2): 6.9 | Full.fc (expression fold change for DUX4-fl targets) (gene USP29): 2.6 | Full.fc (expression fold change for DUX4-fl targets) (gene ZNF217): 4.1 | Full.fc (expression fold change for DUX4-fl targets) (gene ZNF296): 5.5 | Full.fc (expression fold change for DUX4-fl targets) (gene ZNF705A): 3.9 | Full.fc (expression fold change for DUX4-fl targets) (gene ZSCAN4): 8.3 | Full.fc (expression fold change for DUX4-fl targets) (gene ZSCAN5B): 3.8 | Full.fc (expression fold change for DUX4-fl targets) (gene hCG_1651160): 8.3
